For orientation: IC50 means the concentration that inhibits the measured activity by half. Lower therefore signals higher potency. What is called Papp B→A is the apparent permeability from the basolateral to the apical side of a cell layer. In general, Papp A→B refers to the apparent permeability from the apical to the basolateral side of a cell layer. Read a low Papp A→B as slow passage.

These results are taken from patent publication US20240124504A1, “AROMATIC HETEROCYCLIC COMPOUND, AND PHARMACEUTICAL COMPOSITION AND APPLICATION THEREOF” (GT APEIRON THERAPEUTICS LIMITED, priority 2020, published 2024).

Each structure is given as a SMILES string.

The target in data set [1] is CDK2/cyclinE1 complex (Homo sapiens, UniProt P24941). Nature of the data set: In-vitro enzymatic inhibitory activity testing, CDK2 inhibition assay (Caliper EZ Reader II). The data set is classed as biochemical. As to conditions: CDK2/cyclinE1 0.5 nM, 180 min at 27° C. In short, it runs like this: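 CDK2/cyclinE1 (0.5 nM) phosphorylated 5-FAM-CDK7tide (2 μM) in MES buffer pH 6.5 with MgCl2, Tween 20 and BSA. Substrate and product were separated electrophoretically on a Caliper EZ Reader II. IC50 values came from nonlinear dose-response fits.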

The target in data set [2] is CDK9/cyclinT1 complex (Homo sapiens, UniProt P50750). Nature of the data set: In-vitro enzymatic inhibitory activity testing, CDK9 inhibition assay (Caliper EZ Reader II). The data set is classed as biochemical. As to conditions: CDK9/cyclinT1 8 nM, 180 min at 27° C. In a few lines:
(§1)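 Enzyme preincubated 10 min with compound, then peptide substrate plus ATP added in 80 mM MES pH 6.5, 10 mM MgCl2 buffer; 180 min at 27 °C, stopped with EDTA.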

In data set [3] the target is CDK7/cyclinH/MAT1 complex (Homo sapiens, UniProt P50613). Nature of the data set: In-vitro enzymatic inhibitory activity testing, CDK7 inhibition assay (Caliper EZ Reader II). Format: biochemical. As to conditions: CDK7/cyclinH/MAT1 6 nM, 180 min at 27° C. In a few lines:
as §1

Data set [4] can be described thus: Caco-2 membrane permeability and efflux rate. The data set is classed as in vitro ADME. The settings on record: human, Caco-2, Caco-2, 5 μM; for Papp B→A at 2 h, 5 μM: basal end to top end; for efflux ratio at 2 h, 5 μM: read-out: ER (efflux rate); for Papp A→B at 2 h, 5 μM: top end to basal end. In a few lines: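 Caco-2 monolayers after 14-18 days' culture; compound at 5 μM final in HBSS (10 mM HEPES, pH 7.4), apical-to-basal and basal-to-apical, 2 h at 37° C. LC/MS/MS gives Papp (10-6 cm/s) and efflux ratio; lucifer yellow checks monolayer integrity.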
A general note: Passage across Caco-2 layers is used to estimate intestinal permeability.

Chain of CDK7/cyclinH/MAT1 complex (P50613 whole entry, species assumed): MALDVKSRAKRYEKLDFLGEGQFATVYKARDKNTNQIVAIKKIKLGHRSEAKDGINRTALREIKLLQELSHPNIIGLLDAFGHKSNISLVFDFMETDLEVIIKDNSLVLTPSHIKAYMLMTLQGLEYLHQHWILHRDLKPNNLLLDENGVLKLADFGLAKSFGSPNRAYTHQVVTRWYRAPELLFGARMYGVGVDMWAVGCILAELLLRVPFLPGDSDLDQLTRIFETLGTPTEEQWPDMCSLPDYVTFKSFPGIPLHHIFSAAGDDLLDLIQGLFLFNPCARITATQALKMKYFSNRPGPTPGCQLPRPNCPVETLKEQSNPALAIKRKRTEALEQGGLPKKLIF
Chain of CDK7/cyclinH/MAT1 complex (P51946 whole entry partner, species assumed): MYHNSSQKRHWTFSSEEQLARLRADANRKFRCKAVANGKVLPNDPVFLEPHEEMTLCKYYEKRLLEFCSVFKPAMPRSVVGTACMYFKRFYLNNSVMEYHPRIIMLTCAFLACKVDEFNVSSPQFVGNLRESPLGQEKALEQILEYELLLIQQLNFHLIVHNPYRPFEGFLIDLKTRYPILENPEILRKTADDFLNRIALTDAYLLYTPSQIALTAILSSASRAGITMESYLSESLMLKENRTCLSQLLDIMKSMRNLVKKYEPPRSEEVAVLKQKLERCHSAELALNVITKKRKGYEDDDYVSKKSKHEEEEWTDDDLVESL
Chain of CDK7/cyclinH/MAT1 complex (P51948 whole entry partner, species assumed): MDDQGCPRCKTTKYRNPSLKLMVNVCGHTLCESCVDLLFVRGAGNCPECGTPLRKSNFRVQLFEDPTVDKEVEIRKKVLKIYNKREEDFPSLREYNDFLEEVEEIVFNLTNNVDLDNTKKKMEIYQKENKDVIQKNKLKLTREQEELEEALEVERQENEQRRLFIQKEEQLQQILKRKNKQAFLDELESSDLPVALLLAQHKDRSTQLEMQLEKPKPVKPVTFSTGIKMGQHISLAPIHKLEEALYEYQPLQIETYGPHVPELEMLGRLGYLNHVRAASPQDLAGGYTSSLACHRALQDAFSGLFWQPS
Chain of CDK9/cyclinT1 complex (P50750 whole entry, species assumed): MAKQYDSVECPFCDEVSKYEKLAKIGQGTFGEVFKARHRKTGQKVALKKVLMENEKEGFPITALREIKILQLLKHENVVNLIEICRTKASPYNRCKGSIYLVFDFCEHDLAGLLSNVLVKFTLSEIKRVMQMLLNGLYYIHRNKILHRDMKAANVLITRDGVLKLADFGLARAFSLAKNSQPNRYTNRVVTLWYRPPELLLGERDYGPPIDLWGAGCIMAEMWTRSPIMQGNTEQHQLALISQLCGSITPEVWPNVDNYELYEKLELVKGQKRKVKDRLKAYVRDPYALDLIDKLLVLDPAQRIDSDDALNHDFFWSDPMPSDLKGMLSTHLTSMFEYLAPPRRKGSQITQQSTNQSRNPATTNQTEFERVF
Chain of CDK9/cyclinT1 complex (O60563 whole entry partner, species assumed): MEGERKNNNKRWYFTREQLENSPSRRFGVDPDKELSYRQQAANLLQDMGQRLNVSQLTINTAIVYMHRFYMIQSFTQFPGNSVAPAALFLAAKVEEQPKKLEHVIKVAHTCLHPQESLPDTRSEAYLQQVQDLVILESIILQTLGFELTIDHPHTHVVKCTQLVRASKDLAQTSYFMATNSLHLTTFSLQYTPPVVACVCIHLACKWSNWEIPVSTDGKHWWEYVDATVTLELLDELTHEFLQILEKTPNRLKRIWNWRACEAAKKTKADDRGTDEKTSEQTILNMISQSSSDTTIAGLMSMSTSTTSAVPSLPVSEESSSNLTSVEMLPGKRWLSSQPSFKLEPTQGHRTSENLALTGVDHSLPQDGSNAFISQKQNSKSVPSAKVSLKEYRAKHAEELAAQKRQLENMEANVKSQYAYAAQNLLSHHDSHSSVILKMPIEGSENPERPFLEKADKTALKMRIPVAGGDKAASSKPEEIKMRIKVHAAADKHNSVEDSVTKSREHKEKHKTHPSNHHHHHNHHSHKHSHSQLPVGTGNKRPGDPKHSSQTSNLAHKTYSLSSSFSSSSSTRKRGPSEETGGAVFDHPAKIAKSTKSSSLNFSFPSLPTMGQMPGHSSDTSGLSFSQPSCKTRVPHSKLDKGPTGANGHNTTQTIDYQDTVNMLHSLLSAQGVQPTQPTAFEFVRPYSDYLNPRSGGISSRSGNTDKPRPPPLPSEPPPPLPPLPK

`CC(C)(CO)Nc1ncc(C(F)(F)F)c(-c2c[nH]c3c(P(C)(C)=O)cccc23)n1` [Compound 85, (3-(2-((1-hydroxy-2-methylpropan-2-yl)amino)-5-(trifluoromethyl)pyrimidin-4-yl)-1H-indole-7-yl)dimethylphosphine oxide] displayed an IC50 in data set [1] of 5 to 50 µM. The compound further displayed a concentration for half-maximal inhibition (IC50) in data set [2] greater than 50 µM. Besides, the IC50 in data set [3] is less than 0.02 µM. In data set [4], the Papp B→A at 2 h, 5 μM was 21.3 ×10⁻⁶ cm/s; the efflux ratio at 2 h, 5 μM was determined as 2.77; the Papp A→B at 2 h, 5 μM came out at 7.69 ×10⁻⁶ cm/s.

Turning to `CP(C)(=O)c1cccc2c(-c3nc(NC4(CO)COC4)ncc3C(F)(F)F)c[nH]c12` [Compound 114, (3-(2-((3-(hydroxymethyl)oxetan-3-yl)amino)-5-(trifluoromethyl)pyrimidin-4-yl)-1H-indole-7-yl)dimethylphosphine oxide], in data set [1], the IC50 is 0.2 to 5 µM. The compound also returned an IC50 in data set [2] greater than 50 µM. Moreover, the IC50 in data set [3] is less than 0.02 µM. Besides, in data set [4], the Papp B→A at 2 h, 5 μM was 25.4 ×10⁻⁶ cm/s; the efflux ratio at 2 h, 5 μM was determined as 31.9; the Papp A→B at 2 h, 5 μM stood at 0.8 ×10⁻⁶ cm/s.

For the compound `CP(C)(=O)c1cccc2c(-c3nc(NCC4CC4CO)ncc3C(F)(F)F)c[nH]c12` (single isomer, unassigned) [Compound 143], the IC50 in data set [1] was in the range of 5 to 50 µM. The compound further gave a 50% inhibitory concentration (IC50) in data set [2] greater than 50 µM. This compound also came in with an IC50 in data set [3] of less than 0.02 µM. Besides, in data set [4], the Papp B→A at 2 h, 5 μM was found to be 32.5 ×10⁻⁶ cm/s; the efflux ratio at 2 h, 5 μM stood at 13.3; the Papp A→B at 2 h, 5 μM was determined as 2.44 ×10⁻⁶ cm/s.

Turning to `CC[C@@H](CO)Nc1ncc(C(F)(F)F)c(-c2c[nH]c3c(P(C)(C)=O)cccc23)n1` [Compound 88, (S)-(3-(2-((1-hydroxybutan-2-yl)amino)-5-(trifluoromethyl)pyrimidin-4-yl)-1H-indole-7-yl)dimethylphosphine oxide], the IC50 in data set [1] is 0.2 to 5 µM; in data set [2], greater than 50 µM; in data set [3], less than 0.02 µM. Moreover, the Papp B→A at 2 h, 5 μM in data set [4] was 29.2 ×10⁻⁶ cm/s. Besides, in data set [4], the efflux ratio at 2 h, 5 μM was found to be 7.77. Moreover, in data set [4], the Papp A→B at 2 h, 5 μM turned out to be 3.76 ×10⁻⁶ cm/s.

In turn, `C[C@@H](CO)Nc1ncc(C(F)(F)F)c(-c2c[nH]c3c(P(C)(C)=O)cc(F)cc23)n1` [Compound 158] came in with an IC50 in data set [1] of 0.2 to 5 µM. The compound further displayed an IC50 in data set [2] greater than 50 µM. Moreover, the IC50 in data set [3] is less than 0.02 µM. In data set [4], the Papp B→A at 2 h, 5 μM was found to be 28.6 ×10⁻⁶ cm/s; the efflux ratio at 2 h, 5 μM turned out to be 5.65; the Papp A→B at 2 h, 5 μM was 5.07 ×10⁻⁶ cm/s.

As to `CP(C)(=O)c1cccc2c(-c3nc(N[C@H]4CC[C@@H]4O)ncc3C(F)(F)F)c[nH]c12` [Compound 154, (3-(2-(((1S,2S)-2-hydroxycyclobutyl)amino)-5-(trifluoromethyl)pyrimidin-4-yl)-1hydro-indole-7-yl)dimethylphosphine oxide], the results for the IC50 in data set [1], in data set [2] and in data set [3] were 0.2 to 5 µM, 5 to 50 µM and less than 0.02 µM, respectively. Also, the Papp B→A at 2 h, 5 μM in data set [4] was 26.4 ×10⁻⁶ cm/s. The efflux ratio at 2 h, 5 μM in data set [4] was 5.97. This compound had a Papp A→B at 2 h, 5 μM in data set [4] of 4.42 ×10⁻⁶ cm/s.

For `CC(CO)CNc1ncc(C(F)(F)F)c(-c2c[nH]c3c(P(C)(C)=O)cccc23)n1` (single isomer, unassigned) [Compound 149], the IC50 in data set [1] was 0.2 to 5 µM; in data set [2], greater than 50 µM; in data set [3] it was less than 0.02 µM. In data set [4], this compound registered a Papp B→A at 2 h, 5 μM of 32.8 ×10⁻⁶ cm/s. Moreover, the efflux ratio at 2 h, 5 μM in data set [4] was found to be 7.8. The same compound gave a Papp A→B at 2 h, 5 μM in data set [4] of 4.2 ×10⁻⁶ cm/s.

On to `CP(C)(=O)c1cccc2c(-c3nc(NC4(CO)CC(F)(F)C4)ncc3C(F)(F)F)c[nH]c12` [Compound 96, (3-(2-((3,3-difluoro-1-(hydroxymethyl)cyclobutyl)amino)-5-(trifluoromethyl)pyrimidin-4-yl)-1H-indole-7-yl)dimethylphosphine oxide], for which the IC50 in data set [1] lay within 5 to 50 µM. The concentration for half-maximal inhibition (IC50) in data set [2] was greater than 50 µM. In data set [3], this compound showed an IC50 of 0.02 to 0.2 µM. Further, in data set [4], the Papp B→A at 2 h, 5 μM amounted to 26.1 ×10⁻⁶ cm/s; the efflux ratio at 2 h, 5 μM was 14.1; the Papp A→B at 2 h, 5 μM is 1.86 ×10⁻⁶ cm/s.

With `CP(C)(=O)c1cccc2c(-c3nc(NC45CC(O)(C4)C5)ncc3C(F)(F)F)c[nH]c12` [Compound 174, (3-(2-((3-hydroxybicyclo[1.1.1]pentan-1-yl)amino)-5-(trifluoromethyl)pyrimidin-4-yl)-1H-indole-7-yl)dimethylphosphine oxide], in data set [1], the IC50 is 0.2 to 5 µM. This compound also had an IC50 in data set [2] of 5 to 50 µM. For the same compound, the IC50 in data set [3] was less than 0.02 µM. Also, in data set [4], the Papp B→A at 2 h, 5 μM was determined as 34.8 ×10⁻⁶ cm/s; the efflux ratio at 2 h, 5 μM stood at 17.1; the Papp A→B at 2 h, 5 μM amounted to 2.03 ×10⁻⁶ cm/s.

With `CP(C)(=O)c1cccc2c(-c3nc(NC[C@H](F)CO)ncc3C(F)(F)F)c[nH]c12` [Compound 86, (S)-(3-(2-((2-fluoro-3-hydroxypropyl)amino)-5-(trifluoromethyl)pyrimidin-4-yl)-1H-indole-7-yl)dimethylphosphine oxide], the IC50 is 0.2 to 5 µM in data set [1], greater than 50 µM in data set [2] and less than 0.02 µM in data set [3]. The Papp B→A at 2 h, 5 μM in data set [4] worked out at 29.5 ×10⁻⁶ cm/s. The efflux ratio at 2 h, 5 μM in data set [4] worked out at 20.5. This compound had a Papp A→B at 2 h, 5 μM in data set [4] of 1.44 ×10⁻⁶ cm/s.

The compound `CP(C)(=O)c1cccc2c(-c3nc(NCC(F)(F)CO)ncc3C(F)(F)F)c[nH]c12` [Compound 102, (3-(2-((2,2-difluoro-3-hydroxypropyl)amino)-5-(trifluoromethyl)pyrimidin-4-yl)-1H-indole-7-yl)dimethylphosphine oxide] gave a half-inhibitory concentration (IC50) in data set [1] of 5 to 50 µM. In data set [2], this compound yielded an IC50 greater than 50 µM. The IC50 in data set [3] is less than 0.02 µM. Also, in data set [4], the Papp B→A at 2 h, 5 μM was 26.8 ×10⁻⁶ cm/s; the efflux ratio at 2 h, 5 μM was 7.8; the Papp A→B at 2 h, 5 μM is 3.43 ×10⁻⁶ cm/s.

Compound `C[C@@H](CO)Nc1ncc(C#N)c(-c2c[nH]c3c(P(C)(C)=O)cccc23)n1` [Compound 179, (S)-4-(7-(dimethylphosphoryl)-1H-indole-3-yl)-2-((1-hydroxypropan-2-yl)amino)pyrimidine-5-carbonitrile] registered an IC50 in data set [1] of 0.2 to 5 µM. In data set [2], this compound came in with an IC50 greater than 50 µM. This compound registered an IC50 in data set [3] of less than 0.02 µM. Also, in data set [4], the Papp B→A at 2 h, 5 μM was 33.5 ×10⁻⁶ cm/s; the efflux ratio at 2 h, 5 μM was found to be 65.9; the Papp A→B at 2 h, 5 μM is 0.51 ×10⁻⁶ cm/s.
